Laboratory results published in the NIST ThermoML archive (doi:10.1016/j.fluid.2015.03.048).

Columns and labels:
[1] = Liquid; for viscosity: 100 kPa, Capillary tube (Ostwald / Ubbelohde) method; for mass density: 101.33 kPa, Pycnometric method
[2] = xn = mol fraction of the nth substance listed; conditions: 303.15 K, 100 kPa, Liquid; for viscosity: Capillary tube (Ostwald / Ubbelohde) method; for excess molar volume: Direct dilatometry; for speed of sound: Frequency=3 MHz, Sing-around technique in a fixed-path interferometer; for mass density: Pycnometric method

Clc1ccccc1Cl [1,2-dichlorobenzene]
[1], 303.15 K
Conditions	mass density [kg/m3]	viscosity [mPa·s]
–	1299.2	1.301

Cc1cccc([N+](=O)[O-])c1 [3-nitrotoluene]
[1], 303.15 K
Conditions	mass density [kg/m3]	viscosity [mPa·s]
–	1147.67	1.775

CC(=O)N(C)C [N,N-dimethylethanamide]
[1], 303.15 K
Conditions	mass density [kg/m3]	viscosity [mPa·s]
–	941.35	0.865

Clc1cccc(Cl)c1 [1,3-dichlorobenzene]
[1], 303.15 K
Conditions	mass density [kg/m3]	viscosity [mPa·s]
–	1277.16	1.023

Cc1ccccc1[N+](=O)[O-] [2-nitrotoluene]
[1], 303.15 K
Conditions	mass density [kg/m3]	viscosity [mPa·s]
–	1153.24	1.908

Cc1ccccc1Cl [2-chlorotoluene]
[1], 303.15 K
Conditions	mass density [kg/m3]	viscosity [mPa·s]
–	1072.82	0.884

Cc1cccc(Cl)c1 [3-chlorotoluene]
[1]
Conditions	mass density [kg/m3]	viscosity [mPa·s]
293.15 K	1072.15	–
303.15 K	–	0.782

Clc1ccc(Cl)c(Cl)c1 [1,2,4-trichlorobenzene]
[1], 303.15 K
Conditions	mass density [kg/m3]	viscosity [mPa·s]
–	1442.12	1.611

Cc1ccc(Cl)cc1 [4-chlorotoluene] + CC(=O)N(C)C
[2]
Conditions	excess molar volume [m3/mol]	mass density [kg/m3]	speed of sound [m/s]	viscosity [mPa·s]
x2 = 0.0699	–	1056.58	1286	–
x2 = 0.0876	-6e-09	–	–	0.897
x2 = 0.0969	–	1053.3	1294	–
x2 = 0.1205	-1e-08	–	–	0.895
x2 = 0.1267	–	1049.63	1303	–
x2 = 0.1564	-1.2e-08	–	–	0.893
x2 = 0.1767	–	1043.58	1317	–
x2 = 0.2099	–	1039.44	1326	–
x2 = 0.2145	-1.6e-08	–	–	0.89
x2 = 0.2522	–	1034.25	1339	–
x2 = 0.2534	-1.9e-08	–	–	0.888
x2 = 0.3011	-2.2e-08	–	–	0.886
x2 = 0.3187	–	1026.08	1359	–
x2 = 0.374	-2.6e-08	–	–	0.884
x2 = 0.4342	–	1011.83	1385	–
x2 = 0.4664	–	1007.85	1392	–
x2 = 0.4933	–	1004.51	1397	–
x2 = 0.495	-2.9e-08	–	–	0.882
x2 = 0.5275	-2.9e-08	–	–	0.88
x2 = 0.5443	–	998.18	1403	–
x2 = 0.5543	-2.8e-08	–	–	0.879
x2 = 0.6041	-2.7e-08	–	–	0.878
x2 = 0.6513	–	984.88	1415	–
x2 = 0.7047	-2.2e-08	–	–	0.876
x2 = 0.7148	–	976.97	1420	–
x2 = 0.762	-1.8e-08	–	–	0.874
x2 = 0.7858	–	968.12	1424	–
x2 = 0.8241	-1.4e-08	–	–	0.872
x2 = 0.8524	–	959.81	1425	–
x2 = 0.8806	-1e-08	–	–	0.87

Cc1cccc([N+](=O)[O-])c1 [3-nitrotoluene] + CC(=O)N(C)C
[2]
Conditions	excess molar volume [m3/mol]	mass density [kg/m3]	speed of sound [m/s]	viscosity [mPa·s]
x2 = 0.0678	–	1133.63	2077	–
x2 = 0.0851	1.8e-08	–	–	1.76
x2 = 0.1256	–	1121.68	2039	–
x2 = 0.1552	3e-08	–	–	1.752
x2 = 0.1998	–	1106.36	1958	–
x2 = 0.242	4.2e-08	–	–	1.71
x2 = 0.2449	–	1097.04	1906	–
x2 = 0.291	–	1087.34	1857	–
x2 = 0.2931	4.9e-08	–	–	1.686
x2 = 0.3451	5.4e-08	–	–	1.646
x2 = 0.3485	–	1075.63	1802	–
x2 = 0.395	–	1066.03	1763	–
x2 = 0.4062	5.9e-08	–	–	1.603
x2 = 0.455	6.2e-08	–	–	1.568
x2 = 0.4577	–	1053.07	1729	–
x2 = 0.4919	–	1046.01	1699	–
x2 = 0.5191	6.5e-08	–	–	1.519
x2 = 0.5429	–	1035.49	1676	–
x2 = 0.5532	6.6e-08	–	–	1.492
x2 = 0.5935	–	1025.05	1656	–
x2 = 0.603	6.6e-08	–	–	1.451
x2 = 0.6512	6.5e-08	–	–	1.408
x2 = 0.6596	–	1011.39	1632	–
x2 = 0.708	–	1001.42	1616	–
x2 = 0.7125	6.3e-08	–	–	1.348
x2 = 0.7561	5.9e-08	–	–	1.3
x2 = 0.7751	–	987.57	1589	–
x2 = 0.8151	5.1e-08	–	–	1.224
x2 = 0.9654	–	948.44	1473	–
x2 = 0.9727	1.2e-08	–	–	0.935

Cc1cccc(Cl)c1 [3-chlorotoluene] + CC(=O)N(C)C
[2]
Conditions	excess molar volume [m3/mol]	mass density [kg/m3]	speed of sound [m/s]	viscosity [mPa·s]
x2 = 0.0671	–	1063.49	1298	–
x2 = 0.0838	-1e-08	–	–	0.783
x2 = 0.1003	–	1059.19	1307	–
x2 = 0.1242	-1.4e-08	–	–	0.786
x2 = 0.1481	–	1053.01	1317	–
x2 = 0.1735	–	1049.73	1322	–
x2 = 0.1811	-2e-08	–	–	0.789
x2 = 0.2107	-2.3e-08	–	–	0.805
x2 = 0.2255	–	1042.98	1333	–
x2 = 0.2658	–	1037.75	1343	–
x2 = 0.2702	-2.7e-08	–	–	0.811
x2 = 0.3152	-3e-08	–	–	0.817
x2 = 0.3343	–	1028.85	1356	–
x2 = 0.3595	–	1025.57	1362	–
x2 = 0.3897	-3.5e-08	–	–	0.823
x2 = 0.4165	-3.6e-08	–	–	0.828
x2 = 0.4436	–	1014.58	1378	–
x2 = 0.4865	–	1008.96	1385	–
x2 = 0.5035	-3.7e-08	–	–	0.832
x2 = 0.5465	-3.6e-08	–	–	0.837
x2 = 0.5673	–	998.38	1399	–
x2 = 0.6251	-3.4e-08	–	–	0.841
x2 = 0.6638	–	985.69	1412	–
x2 = 0.7042	–	980.38	1416	–
x2 = 0.7152	-2.8e-08	–	–	0.846
x2 = 0.7517	-2.5e-08	–	–	0.85
x2 = 0.7822	–	970.1	1424	–
x2 = 0.8204	-1.9e-08	–	–	0.855
x2 = 0.9182	–	952.18	1440	–
x2 = 0.9345	-9e-09	–	–	0.86

Cc1ccc(Cl)cc1 [4-chlorotoluene]
[1]
Conditions	mass density [kg/m3]	viscosity [mPa·s]
298.15 K	1065.14	–
303.15 K	–	0.902
